The record followed here is ChEMBL document CHEMBL1201862, “PubChem BioAssay data set” (2004).

Structures are written as SMILES.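 48-hour exposure; five concentrations; linearly interpolated endpoints. GI50: concentration for 50% inhibition of growth.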 Active and inactive are the calls of the source. Cut-off read from the data, not from the text of the source: active = GI50 up to about 1.1 µM and inactive = higher.

Among the test systems are BT-549; DMS-114; DMS-273; HOP-18; KM-20L2; LXFL 529; M19-MEL; RXF 631; XF498.
Holding throughout (assay): inhibition of tumour cell growth, NCI panel, 48 h

Take `Nc1nc(-c2ccccc2)c(Cl)c(-c2cc(Cl)ccc2O)n1`: the GI50 is 20.4 µM (inactive) with BT-549; 26.7 µM (inactive) in the assay on DMS-114; 29.7 µM (inactive) in the assay with DMS-273; 42.3 µM (inactive) in the assay with HOP-18; 65.3 µM (inactive) in the assay on KM-20L2; 25.9 µM (inactive) in the assay on LXFL 529. Moreover, the GI50 with M19-MEL is > 72.1 µM (inactive); in the assay with RXF 631 it was 97.7 µM (inactive); in the assay with XF498 it was 28.8 µM (inactive).

With `CN(c1ccccc1)c1nc(=[N+]2CCCC2)ss1.[O-][Cl+3]([O-])([O-])[O-]`, the GI50 in the assay with DMS-114 is 7.66 µM (inactive); in the assay with DMS-273, 6.56 µM (inactive); in the assay with HOP-18, > 100 µM (inactive); in the assay on KM-20L2, > 100 µM (inactive); in the assay with LXFL 529, > 100 µM (inactive); in the assay with RXF 631, 20.6 µM (inactive).

Regarding `Nc1cc[nH]c(=O)n1`, the GI50 in the assay with DMS-114, in the assay on DMS-273, with HOP-18, in the assay on KM-20L2, in the assay on LXFL 529 and in the assay on M19-MEL was > 100 µM (inactive) throughout. The GI50 in the assay with RXF 631 and in the assay on XF498 was > 100 µM (inactive) each time.

On to `COc1ccc(-c2nc(Sc3c([N+](=O)[O-])ncn3C)n[nH]2)cc1`, for which the GI50 was 2.41 µM (inactive) in the assay with DMS-114; 2.18 µM (inactive) in the assay with DMS-273; 0.296 µM (active) with HOP-18; 3.12 µM (inactive) in the assay on LXFL 529; 4.9 µM (inactive) in the assay on M19-MEL; 3.3 µM (inactive) with RXF 631. Further, the GI50 in the assay on XF498 is 2.98 µM (inactive).

`COC(=O)C1(c2ccc(OC)cc2)NC(c2ccccc2)C2C(=O)N(c3ccc(OC)cc3)C(=O)C21` (stereo unspecified): the GI50 with DMS-114 was > 100 µM (inactive); in the assay on DMS-273 it was > 100 µM (inactive); in the assay with HOP-18 it was < 0.01 µM (active); in the assay with KM-20L2, > 100 µM (inactive); with LXFL 529, > 100 µM (inactive); in the assay with RXF 631 it was > 100 µM (inactive). Moreover, in the assay with XF498, the GI50 is > 100 µM (inactive).

Take `CN(C)C(=N)NC(=S)N(C)C`: the GI50 in the assay on DMS-114, in the assay with DMS-273, with HOP-18, in the assay with KM-20L2, in the assay with LXFL 529 and in the assay with M19-MEL was > 100 µM (inactive) each time. Besides, the GI50 in the assay with RXF 631 and with XF498 was > 100 µM (inactive) throughout.

In the case of `C/C(CC(=O)Nc1cccc([N+](=O)[O-])c1)=N\NC(=O)CC#N`, the GI50 in the assay with DMS-114, in the assay on DMS-273, with KM-20L2, in the assay with LXFL 529, in the assay on RXF 631 and in the assay with XF498 was > 100 µM (inactive) in each case.

Regarding `N#COc1ccc(Oc2ccc(OC#N)cc2)cc1`, the GI50 in the assay with DMS-114 is 32.1 µM (inactive); in the assay with HOP-18, > 100 µM (inactive); with KM-20L2, > 100 µM (inactive); in the assay on LXFL 529, > 100 µM (inactive); with M19-MEL, > 100 µM (inactive); in the assay on RXF 631, 17.1 µM (inactive). Besides, the GI50 in the assay with XF498 was > 100 µM (inactive).

Turning to `COc1ccc(C(=O)Cc2ccc(Br)cc2)cc1OC`, the GI50 in the assay with DMS-114, with DMS-273, in the assay with HOP-18, in the assay on KM-20L2, with LXFL 529 and in the assay with M19-MEL was > 100 µM (inactive) in each case. For the same molecule, the GI50 in the assay with RXF 631 was 57.4 µM (inactive); in the assay with XF498 it was 31.7 µM (inactive).

Consider `COC1(OC)CC2C(=O)N(Cc3ccccc3)C1C(S(=O)(=O)c1ccccc1)C2C(C)S(=O)(=O)c1ccccc1` (stereo unspecified), for which the GI50 was 75.5 µM (inactive) with DMS-114; > 100 µM (inactive) with DMS-273; > 100 µM (inactive) with HOP-18; > 100 µM (inactive) in the assay with KM-20L2; > 100 µM (inactive) with LXFL 529; > 100 µM (inactive) with M19-MEL. Further, the GI50 with XF498 was > 100 µM (inactive).

For the molecule `O=C(Cc1nc2ccc(C(=O)c3ccccc3)cc2nc1O)C(=O)Nc1ccc(C(F)(F)F)cc1[N+](=O)[O-]`, the GI50 in the assay on DMS-273 was 99.1 µM (inactive); in the assay with HOP-18 it was 65.2 µM (inactive); in the assay on KM-20L2, 56.4 µM (inactive); in the assay on LXFL 529, 35.8 µM (inactive); in the assay with M19-MEL, 58.1 µM (inactive); with RXF 631, 96.6 µM (inactive). Also, the GI50 with XF498 was 27.5 µM (inactive).

For `CC(CCCOC(c1ccccc1)(c1ccccc1)c1ccccc1)OC(=O)Nc1cc([N+](=O)[O-])cc([N+](=O)[O-])c1` (stereo unspecified), the GI50 in the assay with DMS-114 was 30.6 µM (inactive); in the assay with DMS-273, 33.7 µM (inactive); in the assay on LXFL 529 it was 29.2 µM (inactive); in the assay with M19-MEL it was 40.3 µM (inactive); in the assay with RXF 631, 38.2 µM (inactive).

In the case of `COC(=O)C(=O)C(C(=O)C=C(C)C)C(=O)C(=O)Nc1cccc(C(C)=O)c1` (stereo unspecified), the GI50 in the assay on DMS-114, in the assay with DMS-273, in the assay on HOP-18, in the assay with KM-20L2, in the assay on LXFL 529 and with M19-MEL was > 100 µM (inactive) throughout. Also, the GI50 in the assay with RXF 631 and in the assay on XF498 was > 100 µM (inactive) in each case.

Regarding `c1ccc2c(c1)[nH]c1c2ncc2[nH]c3ccccc3c21`, the GI50 is 2.44 µM (inactive) in the assay on DMS-114; 2.45 µM (inactive) with DMS-273; 2.88 µM (inactive) with HOP-18; 3.71 µM (inactive) with KM-20L2; 3.64 µM (inactive) with LXFL 529; 5.35 µM (inactive) in the assay on M19-MEL. Besides, the GI50 with RXF 631 is 2.16 µM (inactive); with XF498, 1.78 µM (inactive).
